Results as given in patent US10894793B2, “Bicyclic pyridine, pyrazine, and pyrimidine derivatives as PI3K beta inhibitors” (Janssen Pharmaceutica NV, priority 2016, dated 2021).
Where two headings read alike, the source gives them in different places.

What was measured:
[1] = molecular target: T1, MTOR_h (Homo sapiens, UniProt P42345); assay: Enzyme binding assay (KINOMEscan); conditions: DiscoveRx
T1 construct: purchased DiscoveRx Corporation
Description: (§1) Enzyme Binding Assays (KINOMEscan®)
(§2) Kinase enzyme binding affinities of compounds disclosed herein were determined using the KINOMEscan technology performed by DiscoveRx Corporation, San Diego, Calif., USA (www.kinomescan.com). Table A reports the obtained Kd values (nM), with the Kd being the inhibitor binding constant: […]

[2] = molecular target: T2, PIK3Cγ_h (Homo sapiens, UniProt P48736); assay: Enzyme binding assay (KINOMEscan); conditions: DiscoveRx
T2 construct: purchased DiscoveRx Corporation
Description: as §1, §2

[3] = molecular target: T3, PIK3Cβ_h (Homo sapiens, UniProt P42338); assay: Enzyme binding assay (KINOMEscan); conditions: DiscoveRx
T3 construct: purchased DiscoveRx Corporation
Description: as §1, §2

[4] = molecular target: T4, PIK3Cα_h (Homo sapiens, UniProt P42336); assay: Enzyme binding assay (KINOMEscan); conditions: DiscoveRx
T4 construct: purchased DiscoveRx Corporation
Description: as §1, §2

[5] = molecular target: T5, PIK3Cδ_h (Homo sapiens, UniProt O00329); assay: Enzyme binding assay (KINOMEscan); conditions: DiscoveRx
T5 construct: purchased DiscoveRx Corporation
T5 sequence (O00329 1-1044): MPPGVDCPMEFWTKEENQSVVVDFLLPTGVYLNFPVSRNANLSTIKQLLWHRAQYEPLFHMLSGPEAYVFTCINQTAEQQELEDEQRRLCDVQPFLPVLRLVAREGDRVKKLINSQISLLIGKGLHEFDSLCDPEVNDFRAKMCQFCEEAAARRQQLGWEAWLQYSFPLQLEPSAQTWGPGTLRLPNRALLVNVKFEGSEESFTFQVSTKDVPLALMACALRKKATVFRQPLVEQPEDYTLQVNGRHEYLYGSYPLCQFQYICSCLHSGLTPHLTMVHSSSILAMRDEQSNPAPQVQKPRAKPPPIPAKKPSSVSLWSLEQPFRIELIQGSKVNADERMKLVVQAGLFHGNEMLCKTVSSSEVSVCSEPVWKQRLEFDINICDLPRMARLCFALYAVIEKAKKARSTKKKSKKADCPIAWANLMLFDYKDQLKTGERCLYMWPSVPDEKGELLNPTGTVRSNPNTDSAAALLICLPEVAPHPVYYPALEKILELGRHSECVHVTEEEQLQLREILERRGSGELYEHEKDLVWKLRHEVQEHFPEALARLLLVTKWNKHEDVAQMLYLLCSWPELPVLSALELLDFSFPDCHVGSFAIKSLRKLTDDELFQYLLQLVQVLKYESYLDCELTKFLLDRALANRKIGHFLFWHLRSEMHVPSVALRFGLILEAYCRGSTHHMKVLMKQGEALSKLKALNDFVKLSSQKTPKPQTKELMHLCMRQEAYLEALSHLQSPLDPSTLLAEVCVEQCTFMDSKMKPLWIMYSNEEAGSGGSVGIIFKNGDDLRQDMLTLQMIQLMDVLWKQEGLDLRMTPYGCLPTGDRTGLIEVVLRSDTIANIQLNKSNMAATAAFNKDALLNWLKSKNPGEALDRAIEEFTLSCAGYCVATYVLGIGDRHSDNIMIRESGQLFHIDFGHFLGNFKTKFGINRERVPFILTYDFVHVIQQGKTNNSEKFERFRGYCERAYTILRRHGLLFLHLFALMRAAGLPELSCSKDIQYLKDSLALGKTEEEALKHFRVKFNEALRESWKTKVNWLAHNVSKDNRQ
Description: as §1, §2

[6] = test system: Akt phosphorylated at Ser473 in PC-3 cells; assay: Cellular assay: phosphorylation of Akt (Ser473) in PC-3 cells, MSD ELISA; assay type: cell-based; conditions: 60 min compound incubation, read-out: IC50 pAkt_S473
Description: (§3) Cellular activity of PI3Kβ inhibitors was determined by quantifying the phosphorylation of Akt in PC-3 cells. Akt phosphorylated at Ser473 and Thr308 were measured using an enzyme-linked immunosorbent assay (ELISA; Meso Scale Discovery (MSD), Gaithersburg, Md.) and specific primary antibodies from MSD.
(§4) On day 1, PC3 cells (ATCC #[…]) were seeded into PerkinElmer MW96 plates at 25.000 cells per well, in 75 μl complete culture medium (DMEM high glucose, AQmedia™, D0819, Sigma-Aldrich) containing 10% heat inactivated FCS and incubated at 37° C., […] during 24 hours. On day 2, compound or DMSO (0.3%) was added and cells were further incubated for 60 min at 37° C., 5% CO2 in a total volume of 100 μl of medium.
(§5) The phosphoprotein assay was executed according to vendor instructions in the Phospho-Akt (Ser473) Assay Whole Cell Lysate Kit (MSD #K15100D-3) and the Phospho-Akt (Thr308) Assay Whole Cell Lysate Kit (MSD #K151DYD-3) using the lysis, blocking and wash buffer provided.
(§6) Briefly, at the end of the cell treatment period, media were removed by aspiration and adherent cells were lysed in 50 μl ice-cold lysis buffer. MSD plates are supplied pre-coated with capture antibodies for Phospho-Akt (Ser473 and Thr308). After blocking, lysates from tissue culture plates were added and plates were washed. Then, a solution containing the detection antibody (anti-total Akt conjugated with an electrochemiluminescent compound-MSD Sulfo-tag label) was added. The signals were detected using an MSD SECTOR Imager 6000 and are proportional to the phospho-Akt titres.
(§7) Data were processed. The percentage of inhibition was plotted against the log concentration of test compounds, and the sigmoidal log concentration-effect curve of best fit was calculated by nonlinear regression analysis. From these concentration-response curves, the IC50 values were calculated. Five concentrations were used for curve fitting.

[7] = test system: Akt phosphorylated at Thr308 in PC-3 cells; assay: Cellular assay: phosphorylation of Akt (Thr308) in PC-3 cells, MSD ELISA; assay type: cell-based; conditions: 60 min compound incubation, read-out: IC50 pAkt_Thr308
Description: as §3, §4, §5, §6, §7

T2 sequence (P48736 whole entry): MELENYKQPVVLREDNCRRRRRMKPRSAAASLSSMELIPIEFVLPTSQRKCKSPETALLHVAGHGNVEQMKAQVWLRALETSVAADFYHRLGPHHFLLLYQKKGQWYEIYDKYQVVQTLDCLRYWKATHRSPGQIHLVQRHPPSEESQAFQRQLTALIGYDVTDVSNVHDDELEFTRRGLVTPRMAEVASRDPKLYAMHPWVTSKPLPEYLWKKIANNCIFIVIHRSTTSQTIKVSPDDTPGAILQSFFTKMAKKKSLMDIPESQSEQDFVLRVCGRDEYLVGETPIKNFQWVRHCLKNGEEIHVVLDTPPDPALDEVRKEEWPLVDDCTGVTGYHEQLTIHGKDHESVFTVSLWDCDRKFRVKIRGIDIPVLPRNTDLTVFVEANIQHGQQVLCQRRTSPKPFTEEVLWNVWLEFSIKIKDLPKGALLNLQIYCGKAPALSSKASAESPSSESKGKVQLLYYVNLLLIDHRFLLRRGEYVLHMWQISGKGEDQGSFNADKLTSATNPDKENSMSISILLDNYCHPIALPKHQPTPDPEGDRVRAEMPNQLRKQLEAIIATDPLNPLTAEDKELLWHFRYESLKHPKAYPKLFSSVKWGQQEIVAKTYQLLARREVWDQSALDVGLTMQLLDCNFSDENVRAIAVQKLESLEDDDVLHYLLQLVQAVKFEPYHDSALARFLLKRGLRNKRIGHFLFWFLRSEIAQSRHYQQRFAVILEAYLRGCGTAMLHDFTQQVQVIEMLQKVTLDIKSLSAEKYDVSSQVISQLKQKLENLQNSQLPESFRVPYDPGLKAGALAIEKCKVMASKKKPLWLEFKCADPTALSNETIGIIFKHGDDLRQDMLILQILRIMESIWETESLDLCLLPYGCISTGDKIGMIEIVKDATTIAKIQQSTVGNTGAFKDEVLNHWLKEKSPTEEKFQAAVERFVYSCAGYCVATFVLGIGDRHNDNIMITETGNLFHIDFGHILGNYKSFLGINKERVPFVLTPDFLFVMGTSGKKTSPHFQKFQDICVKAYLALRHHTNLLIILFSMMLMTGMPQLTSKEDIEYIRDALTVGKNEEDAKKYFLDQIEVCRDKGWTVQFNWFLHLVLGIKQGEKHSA
T4 sequence (P42336 whole entry): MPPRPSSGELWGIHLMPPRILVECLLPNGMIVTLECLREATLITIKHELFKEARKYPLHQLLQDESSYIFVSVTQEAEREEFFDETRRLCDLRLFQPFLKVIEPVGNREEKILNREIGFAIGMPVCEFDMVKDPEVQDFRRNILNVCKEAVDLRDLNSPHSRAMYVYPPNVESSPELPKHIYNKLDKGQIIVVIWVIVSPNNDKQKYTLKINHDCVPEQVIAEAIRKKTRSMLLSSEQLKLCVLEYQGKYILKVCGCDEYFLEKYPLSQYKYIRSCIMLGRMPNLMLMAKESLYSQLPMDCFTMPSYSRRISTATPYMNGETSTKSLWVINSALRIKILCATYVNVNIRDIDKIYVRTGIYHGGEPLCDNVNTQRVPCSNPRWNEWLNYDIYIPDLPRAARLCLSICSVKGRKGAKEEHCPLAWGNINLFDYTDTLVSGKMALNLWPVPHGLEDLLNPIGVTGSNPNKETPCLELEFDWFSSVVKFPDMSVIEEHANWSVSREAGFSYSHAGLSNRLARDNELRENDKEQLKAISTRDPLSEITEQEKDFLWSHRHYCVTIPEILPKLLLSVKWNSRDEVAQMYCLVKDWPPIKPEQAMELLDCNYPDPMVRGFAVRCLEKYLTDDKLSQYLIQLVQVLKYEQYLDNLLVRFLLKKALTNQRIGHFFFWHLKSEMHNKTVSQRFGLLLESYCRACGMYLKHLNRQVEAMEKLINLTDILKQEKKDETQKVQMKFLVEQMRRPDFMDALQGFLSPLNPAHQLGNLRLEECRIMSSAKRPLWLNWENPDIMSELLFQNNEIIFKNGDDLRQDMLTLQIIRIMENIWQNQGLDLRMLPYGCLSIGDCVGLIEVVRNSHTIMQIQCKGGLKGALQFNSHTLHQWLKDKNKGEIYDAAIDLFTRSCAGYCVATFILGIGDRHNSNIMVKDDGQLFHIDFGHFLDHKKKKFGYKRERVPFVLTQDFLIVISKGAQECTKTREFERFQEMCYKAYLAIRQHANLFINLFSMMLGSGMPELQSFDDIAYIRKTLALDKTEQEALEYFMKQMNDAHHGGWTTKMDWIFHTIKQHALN
T3 sequence (P42338 whole entry): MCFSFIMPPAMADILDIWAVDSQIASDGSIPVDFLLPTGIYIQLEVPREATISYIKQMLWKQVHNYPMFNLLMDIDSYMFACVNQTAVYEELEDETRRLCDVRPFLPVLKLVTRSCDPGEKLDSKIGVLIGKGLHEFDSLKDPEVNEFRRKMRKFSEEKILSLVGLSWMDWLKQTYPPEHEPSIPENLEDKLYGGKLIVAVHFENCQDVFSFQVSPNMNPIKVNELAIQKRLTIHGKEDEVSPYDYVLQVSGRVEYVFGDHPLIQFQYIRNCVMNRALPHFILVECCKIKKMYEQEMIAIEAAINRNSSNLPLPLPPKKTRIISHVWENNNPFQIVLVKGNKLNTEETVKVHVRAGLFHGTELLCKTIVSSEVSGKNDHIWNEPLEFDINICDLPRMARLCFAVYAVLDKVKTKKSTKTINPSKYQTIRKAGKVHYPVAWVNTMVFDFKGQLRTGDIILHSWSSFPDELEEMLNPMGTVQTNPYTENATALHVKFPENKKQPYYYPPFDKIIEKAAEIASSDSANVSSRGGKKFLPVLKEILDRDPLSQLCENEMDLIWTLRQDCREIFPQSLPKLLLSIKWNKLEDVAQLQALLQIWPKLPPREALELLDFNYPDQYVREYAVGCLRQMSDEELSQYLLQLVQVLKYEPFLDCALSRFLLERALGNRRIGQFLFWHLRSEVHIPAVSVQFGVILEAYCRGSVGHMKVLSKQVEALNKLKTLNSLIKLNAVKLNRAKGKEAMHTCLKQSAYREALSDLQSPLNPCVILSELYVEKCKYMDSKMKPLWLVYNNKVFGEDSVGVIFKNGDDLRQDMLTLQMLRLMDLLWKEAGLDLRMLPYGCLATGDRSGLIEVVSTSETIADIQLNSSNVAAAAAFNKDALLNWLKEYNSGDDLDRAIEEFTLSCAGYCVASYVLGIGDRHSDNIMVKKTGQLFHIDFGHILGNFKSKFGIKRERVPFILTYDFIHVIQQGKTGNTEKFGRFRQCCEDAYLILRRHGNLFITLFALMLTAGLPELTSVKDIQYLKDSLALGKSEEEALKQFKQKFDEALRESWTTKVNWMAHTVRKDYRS

Row | SMILES | Kd [1] [nM] | Kd [2] [nM] | Kd [3] [nM] | Kd [4] [nM] | Kd [5] [nM] | IC50 ([6]; Homo sapiens, PC-3, 1 h) [nM] | IC50 ([7]; Homo sapiens, PC-3, 1 h) [nM] | IC50 [6] [nM] | IC50 [7] [nM]
1 | Cc1c(Cc2c(CN3C[C@@H](C)N[C@@H](C)C3)nc3cnc(N4CCOCC4)cn23)cccc1C(F)(F)F [Compound 11] | > 30200 | > 30200 | 120 | > 30200 | 8130 | > 513 | > 513 | – | –
2 | Cc1nc2c(CO)nc(C3=CCOCC3)cn2c1Cc1cccc(C(F)(F)F)c1C [Compound 4] | > 30200 | 14800 | 7.6 | 12000 | 3020 | > 513 | 479 | – | –
3 | Cc1c(Cc2c(CN3CCCC4(CNC4)C3)nc3ccc(N4CCOCC4)cn23)cccc1C(F)(F)F [Compound 31] | > 30200 | > 30200 | 20 | > 30200 | 1350 | 479 | > 513 | – | –
4 | Cc1c(Cc2c(CC(=O)N3CC(CO)C3)nc3cnc(N4CCOCC4)cn23)cccc1C(F)(F)F [Compound 15] | > 30200 | > 30200 | 141 | > 30200 | 11200 | – | – | – | –
5 | Cc1c(Cc2c(CN3CCC4(CCS(=O)(=O)C4)C3)nc3ncc(N4CCOCC4)cn23)cccc1C(F)(F)F (single isomer, unassigned) [Compound 24a] | > 30200 | > 30200 | 6.5 | > 30200 | 759 | – | – | 347 | 170
6 | Cc1nc2c(C(=O)O)nc(C3=CCOCC3)cn2c1Cc1cccc(C(F)(F)F)c1C [Compound 3] | > 30200 | > 30200 | 1.4 | 11500 | 468 | – | > 513 | – | –
7 | Cc1nc2ccc(N3CCOCC3)cn2c1Cc1cccc(C(F)(F)F)c1C [Compound 27] | > 30200 | > 30200 | 363 | 9550 | 2570 | > 513 | 417 | – | –
8 | Cc1c(Cc2c(CN3CC4(C3)CS(=O)(=O)C4)nc3ccc(N4CCOCC4)cn23)cccc1C(F)(F)F [Compound 33] | > 30200 | > 30200 | 3 | 589 | 316 | 16 | 15 | – | –
9 | Cc1c(Cc2c(CF)nc3ccc(N4CCOCC4)cn23)cccc1C(F)(F)F [Compound 29] | > 30200 | 14500 | 126 | 6920 | 2140 | 155 | 50 | – | –
10 | Cc1c(Cc2c(CN3CCCC4(CNC4)C3)nc3ncc(N4CCOCC4)cn23)cccc1C(F)(F)F [Compound 20] | > 30200 | > 30200 | 76 | > 30200 | 7240 | > 513 | > 513 | – | –

Now from value to compound:

Row | Kd [1] [nM] | Kd [2] [nM] | Kd [3] [nM] | Kd [4] [nM] | Kd [5] [nM] | IC50 ([6]; Homo sapiens, PC-3, 1 h) [nM] | IC50 ([7]; Homo sapiens, PC-3, 1 h) [nM] | IC50 [6] [nM] | IC50 [7] [nM] | SMILES
11 | > 30200 | > 30200 | 22 | > 30200 | 2140 | ~224 | ~132 | – | – | Cc1c(Cc2c(CN(C)CCO)nc3ccc(N4CCOCC4)cn23)cccc1C(F)(F)F [Compound 36]
12 | 151 | 1070 | 2.5 | 525 | 186 | 76 | ~20 | – | – | Cc1c(Cc2c(CO)nc3c(-c4ccn[nH]4)cc(C4=CCOCC4)cn23)cccc1C(F)(F)F [Compound 42]
13 | > 30200 | > 30200 | 11 | 2570 | 1410 | 288 | ~174 | – | – | Cc1c(Cc2c(CN3CCC4(CCS(=O)(=O)C4)C3)nc3ncc(N4CCOCC4)cn23)cccc1C(F)(F)F (stereo not drawn) [Compound 24]
14 | > 30200 | > 30200 | 155 | > 30200 | 15100 | > 513 | > 513 | – | – | Cc1c(Cc2c(CC(=O)N3C[C@@H](C)N[C@@H](C)C3)nc3cnc(N4CCOCC4)cn23)cccc1C(F)(F)F [Compound 14]
15 | 12900 | > 30200 | 0.3 | 302 | 44 | 15 | ~10 | – | – | Cc1c(Cc2c(CN3CC4(C3)CS(=O)(=O)C4)nc3ccc(C4=CCOCC4)cn23)cccc1C(F)(F)F [Compound 40]
16 | 2290 | 4370 | 71 | 2950 | 2040 | > 513 | > 513 | – | – | Cc1c(Cc2c(CO)nc3c(-c4ccn[nH]4)cc(N4CCOCC4)cn23)cccc1C(F)(F)F [Compound 38]
17 | 3980 | 11200 | 0.5 | 468 | 141 | ~40 | 28 | – | – | Cc1c(Cl)cccc1Nc1c(CO)nc2ccc(N3CCOCC3)cn12 [Compound 39]
18 | 18600 | 15800 | 91 | 14500 | 3470 | 145 | 166 | – | – | Cc1c(Cc2c(CO)nc3c(N)cc(N4CCOCC4)cn23)cccc1C(F)(F)F [Compound 45]
19 | 17900 | 15300 | 1.4 | 3500 | 442 | 72 | 43 | – | – | Cc1c(Cc2c(CO)nc3ncc(N4CCOCC4)cn23)cccc1C(F)(F)F [Compound 18]
20 | 23200 | > 30200 | 9 | 16900 | 741 | 110 | 70 | – | – | Cc1c(Cc2c(CNCCO)nc3ccc(N4CCOCC4)cn23)cccc1C(F)(F)F [Compound 34]
21 | 1670 | 1920 | 0.9 | 585 | 35 | 52 | ~59 | – | – | Cc1c(Cc2c(CO)nc3c(-c4ncc[nH]4)cc(C4=CCOCC4)cn23)cccc1C(F)(F)F [Compound 43]
22 | 200 | 324 | 1.1 | 96 | 13 | 14 | 14 | – | – | Cc1c(Cc2c(CO)nc3c(-c4c[nH]cn4)cc(C4=CCOCC4)cn23)cccc1C(F)(F)F [Compound 41]
23 | > 10000 | > 30200 | 631 | > 10000 | 5750 | – | – | – | – | CCOC(=O)Cc1nc2ccc(N3CCOCC3)cn2c1Cc1cccc(C(F)(F)F)c1C [Compound 30]
